Assay results taken from patent US20160152704A1, “CADHERIN 15 AGONISTS” (THE UNIVERSITY OF BIRMINGHAM, priority 2013, published 2016).
Read-outs that look alike come from different tables or passages of the source.

Columns and labels:
[1] = tested on: T cells (PBL) on HUVEC where CDH15 or THBS1 were knock-down; assay: T cell transmigration assay using endothelial cells with siRNA knock-down of CDH15 or THBS1; assay type: cell-based, human; settings: FIG. 4
Description: (§1) We measured the transmigration of T cells (PBL) after 6 minutes incubation at 37° C. on TNF-α and IFN-α stimulated endothelial cells (EC) using phase contrast microscopy. Cultured ECs were stimulated by cytokines for 24 hours. Subsequently, peripheral blood lymphocytes (PBL) were purified from the blood of healthy donors. PEPITEM was added to the PBL and these were incubated on the endothelial cells for 6 minutes. Non-adherent PBLs were removed by washing with cell free buffer. Video-microscope images of adherent cells were made from at least 5 fields of view for each EC monolayer. Adherent lymphocytes were either, i) phase bright (PB) and adherent to the apical surface of the endothelium, or ii) phase dark (PD) and migrated through the EC monolayer. The percentage of migrated cells was calculated by dividing the number of migrated cells by the total number of adherent lymphocytes (PB+PD) and multiplying by 100. To determine whether PEPITEM targets T-cells or endothelial cells, we pre-treated T-cells, endothelial cells or both T cells and endothelial cells with PEPITEM.
HUVEC were plated in a 12 well plate (87500 cells per well) for 24 hours or until about 80% confluence. The relevant siRNA were added at a final concentration of 50 nM to 83.75 μl or 82.5 μl if duplex in Optimem media (Life Technologies Invitrogen Compounds). […]

[2] = tested on: T cells (PBL) on TNF-α and IFN-α stimulated endothelial cells (EC); assay type: cell-based; settings: FIG. 1
Description: as §1

CDH15-FC protein = target: T1, CDH15-FC protein (Homo sapiens, UniProt P55291); assay: Surface plasmon resonance (Biocore 3000), PEPITEM perfused over immobilised CDH15-FC; assay type: binding; settings: PEPITEM perfused at increasing concentration; FIG. 5
T1 construct: Fc
Source text: Gold-coated chips were used to analyse the interaction of CDH15 with PEPITEM in the Biocore 3000 instrument. CDH15-FC protein was immobilised on a Biocore chip. PEPITEM was perfused through the Biocore cell at increasing concentration. […] This provides further evidence that cadherin-15 is the PEPITEM receptor.

T1 sequence (P55291 with tags, fused parts or gaps limits assumed): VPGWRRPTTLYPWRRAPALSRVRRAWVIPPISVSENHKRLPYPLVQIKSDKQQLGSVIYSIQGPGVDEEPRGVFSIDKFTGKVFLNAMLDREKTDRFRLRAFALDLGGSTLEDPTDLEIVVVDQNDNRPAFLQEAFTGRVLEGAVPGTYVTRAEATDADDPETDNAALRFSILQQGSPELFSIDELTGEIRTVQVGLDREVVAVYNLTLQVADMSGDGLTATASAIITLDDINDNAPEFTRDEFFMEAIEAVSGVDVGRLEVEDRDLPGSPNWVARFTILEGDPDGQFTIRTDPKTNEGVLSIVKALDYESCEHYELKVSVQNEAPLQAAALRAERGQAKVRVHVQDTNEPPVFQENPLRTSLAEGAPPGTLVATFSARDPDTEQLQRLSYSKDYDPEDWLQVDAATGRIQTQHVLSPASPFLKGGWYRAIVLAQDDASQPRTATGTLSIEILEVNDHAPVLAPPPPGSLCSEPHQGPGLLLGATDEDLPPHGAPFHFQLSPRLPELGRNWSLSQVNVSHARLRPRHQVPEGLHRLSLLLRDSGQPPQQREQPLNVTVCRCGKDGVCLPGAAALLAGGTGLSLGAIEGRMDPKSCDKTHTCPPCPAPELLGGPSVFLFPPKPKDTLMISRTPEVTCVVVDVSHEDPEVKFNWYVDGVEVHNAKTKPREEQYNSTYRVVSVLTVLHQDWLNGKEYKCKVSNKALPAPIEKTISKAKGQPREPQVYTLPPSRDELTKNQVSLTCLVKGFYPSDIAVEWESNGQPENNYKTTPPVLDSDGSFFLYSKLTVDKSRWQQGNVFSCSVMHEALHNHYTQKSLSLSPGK

- binding to CDH15 protein (changes in SPR) (CDH15-FC protein): able to bind to the CDH15 protein
Substance: PEPITEM (SVTEQGAELSNEER; listed as Homo sapiens)
- inhibitory effect on T cell transmigration ([1]; endothelial cells with CDH15 (cadherin-15) knockdown): released T-cells from the inhibitory effects
- effect on T-cell trafficking ([1]; endothelial cells with THBS1 (thrombospondin-1) knockdown, presence of PEPITEM): no significant effect
- inhibition of T cell transmigration ([2]; T-cells alone pre-treated with PEPITEM): ineffective at inhibiting transmigration
- inhibition of T cell transmigration ([2]; endothelial cells pre-treated with PEPITEM): transmigration is successfully inhibited
